Measurements published in patent US4992448A, “Benzocycloalkylaminopyridinamines and related compounds as topical antiinflammatory agents for the treatment of skin disorders” (Hoechst-Roussel Pharmaceuticals Inc., priority 1989, dated 1991).

Columns and labels:
[1] = system: ear edema induced by topical application of TPA; assay: TPA-Induced Ear Edema (TPAEE); format: in vivo, Female Swiss WEbster mice; conditions: for TPAEE (10 μg): 10 μg/ear test compound topical, TPA 10 μg/ear, ear punch weight after five hours
Method: TPA-Induced Ear Edema (TPAEE) The purpose of this assay was to determine the ability of a topically-applied compound to prevent ear edema induced by topical application of TPA (phorbol 12/myristate acetate). Female Swiss WEbster mice topically received TPA (10μg/ear) on the right ear and vehicle on the left ear. The test compound (10μg/ear) was applied to both ears. After five hours, the animals were sacrificed and an ear punch (4 mm) was taken from each ear. The difference in right and left ear punch weights for each animal was determined to uses activity. […] See Yound, J. M. et. al., J. Invest.

[2] = system: Phospholipase A2 -induced paw edema; assay: Phospholipase A2-induced Paw Edema (PIPE); format: in vivo, male Wistar rats; conditions: for PIPE (0.1 M), difference in edema vs. control: 0.1 M test compound injected with PLA2 (3 units/paw), subplantar, rat left hind paw, two hours post administration
Method: Phospholipase A2 -induced Paw Edema (PIPE) A2 -induced paw edema in male Wistar rats (100-125 g) was measured. PLA2 (3 units/paw) alone or with 0.1 M of the test compound was injected in the subplantar region of the rat left hind paw. Immediately subsequent to the injection and at two hours post administration the paw was immersed in a mercury bath, and paw displacement was measured on a recorder via a transducer. […] See Giessler, A. J. et. al., Agents and Actions, Vol. 10, Trends in Inflammation Research (1981), p. 195.

porcine pancreatic PLA2 = porcine pancreatic PLA2 (Sus scrofa, UniProt P00592); assay: In Vitro Phospholipase A2 Assay (PLA2); format: biochemical; conditions: 0.01 M test compound; porcine pancreatic PLA2 (3.2 units), pH 8.0, 37° C.
Method: In Vitro Phospholipase A2 Assay (PLA2) The ability of a compound to modulate PLA2 activity (clevage of ^14 -dipalmitoyl phosphotidylcholine at the 2-position to ^14 C-palmitic acid) was quantitated in this assay. […] The reaction was run at 37° C. in a shaking incubator. The reaction was quenched and an internal standard was added in order to determine sample recovery. The samples were loaded onto D18 columns, eluted with ethanol, and the radioactivity was then measured.

Sequence of porcine pancreatic PLA2 (P00592 23-146): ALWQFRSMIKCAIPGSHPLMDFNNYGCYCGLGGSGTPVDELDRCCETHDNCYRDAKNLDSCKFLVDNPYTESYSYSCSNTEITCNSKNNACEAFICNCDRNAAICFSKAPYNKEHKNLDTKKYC

Compound	ED50 (TPAEE standard) ([1]; standard, TPA-induced mouse ear edema, topical) [μg/ear]	ED50 (PIPE standard) ([2]; standard, PLA2-induced rat paw edema) [M]	TPAEE (10 μg) [1] [%]	PIPE (0.1 M), difference in edema vs. control [2] [%]	inhibition at 10000 µM (porcine pancreatic PLA2) [%]
C[C@]12CCC(=O)C=C1CC[C@@H]1[C@@H]2[C@@H](O)C[C@@]2(C)[C@H]1CC[C@]2(O)C(=O)CO [hydrocortisone, reference compound]	47	0.46	–	–	–
Nc1cc[n+]([O-])cc1N1CCc2ccccc2C1	–	–	-45	-42	59
Nc1cnccc1N1CCc2ccccc21 [1-(3-Amino-4-pyridinyl)-2,3-dihydro-1H-indole]	–	–	-74	-34	42
Nc1ccncc1N1CCc2ccccc21 [1-(4-Amino-3-pyridinyl)-2,3-dihydro-1H-indole]	–	–	-35	-33	85
